Assay results published in patent US9340577B2, “HLA binding motifs and peptides and their uses” (priority 1992, dated 2016).
No end group written: not given here.

How the values were obtained:
Test in all cases: biochemical
[1] = molecular target: DR1 (DRB1*0101) (Homo sapiens, UniProt P01903+P01911, A100R/D57E/F55L/F60I/F76Y/I96L/L162R/M171V/P40L/Q125E/R42F/V115G/Y59C); format: binding
[2] = molecular target: DR4w4 (DRB1*0401) (Homo sapiens, UniProt P01903+P01911, A100K/A169T/F76Y/I96L/K127E/L162R/M171V/N62H/P40V/Q125Y/R42H/S133A/S149N/S66Y/V115G/V209L/W38E); format: binding
[3] = molecular target: DR7 (DRB1*0701) (Homo sapiens, UniProt P01903+P01911, A100R/A102G/A103Q/D57E/D86V/E43K/F76Y/K127E/L162R/M171V/P40G/Q125H/Q99D/R33Q/R42Y/R54Q/S133A/S66F/T210M/V115G/Y107V/Y59L/Y89S); format: binding
[4] = molecular target: DRB1*0301 (Homo sapiens, UniProt P01903+P01911, A100K/A102G/A103R/A169T/F55Y/I96L/K41T/L162R/M171V/P40S/Q125H/Q178H/Q39Y/R42S/S66N/T106N/T262R/W38E/Y61H); format: binding
Sequence of DRB1*0301 (P01903 26-254 limits assumed, other chains not shown): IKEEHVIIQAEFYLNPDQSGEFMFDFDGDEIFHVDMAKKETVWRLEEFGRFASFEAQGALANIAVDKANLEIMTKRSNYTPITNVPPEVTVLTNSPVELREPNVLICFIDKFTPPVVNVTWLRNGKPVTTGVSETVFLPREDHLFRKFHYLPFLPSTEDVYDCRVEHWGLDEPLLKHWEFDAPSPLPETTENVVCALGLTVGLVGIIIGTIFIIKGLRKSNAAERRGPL

[5] = molecular target: DRB1*0405 (Homo sapiens, UniProt P01903+P01911, A100R/A169T/D86S/F76Y/I96L/K127E/L162R/M171V/N62H/P40V/Q125Y/R42H/S133A/S149N/S66Y/V115G/V209L/W38E); format: binding
[6] = molecular target: DRB1*0802 (Homo sapiens, UniProt P01903+P01911, A100R/A103L/A169T/F76Y/H45Y/I96F/K41T/L162R/M171V/P40S/Q125H/Q178H/Q39Y/Q99D/R218S/R42G/S66Y/V115G/W38E); format: binding
[7] = molecular target: DRB1*0901 (Homo sapiens, UniProt P01903+P01911, A100R/A103E/D57H/D86V/F55Y/F60I/F76Y/I96F/K127E/L162R/M171V/P40D/Q125H/Q99R/R33Q/R42F/S133A/S66N/T210M/V115G/W38K/Y107V/Y59G/Y89S); format: binding
[8] = molecular target: DRB1*1201 (Homo sapiens, UniProt P01903+P01911, A100R/A169T/D57E/D86V/F55L/H45Y/K41T/L162R/M171V/P40S/Q125H/Q178H/Q39Y/Q99D/R42G/S66L/T262R/V114A/V67L/W38E/Y59H/Y61H/Y89S); format: binding
[9] = molecular target: DRB1*1302 (Homo sapiens, UniProt P01903+P01911, A100E/A169T/K41T/L162R/M171V/P40S/Q125H/Q178H/Q39Y/Q99D/R42S/S66N/T262R/V115G/W38E/Y61H); format: binding
Sequence of DRB1*1302 (P01903 26-254 limits assumed, other chains not shown): as above

[10] = molecular target: DRB4*0101 (Homo sapiens, UniProt P01903+P13762, G164S); format: binding
[11] = molecular target: DRB5*0101 (Homo sapiens, UniProt P01903+Q30154); settings: Binding affinity DRB5 *0101
[12] = molecular target: DRB1*1501 (Homo sapiens, UniProt P01903+P01911); format: binding
[13] = molecular target: DRB1*1101 (Homo sapiens, UniProt P01903+P01911, A100R/A169T/A87E/I96F/K41T/L162R/M171V/P40S/Q125H/Q178H/Q39Y/Q99D/R42S/S66Y/T262R/V115G/W38E); settings: Binding affinity DRB1 *1101
Sequence of DRB1*1101 (P01903 26-254 limits assumed, other chains not shown): as above

Sequence | IC50 [1] [nM] | IC50 [2] [nM] | IC50 [3] [nM] | IC50 [4] [nM] | IC50 [5] [nM] | IC50 [6] [nM] | IC50 [7] [nM] | IC50 [8] [nM] | IC50 [9] [nM] | IC50 [10] [nM] | IC50 [11] [nM] | IC50 [12] [nM] | IC50 [13] [nM]
IIHLKGDANILKCLR [Peptide 90.0197] | 69 | 64 | 3050 | 26 | 6500 | 2990 | 14100 | 5030 | 66 | 713 | 2460 |  | 
VTAIFGVNPTIAEGF [Peptide 89.0023] | 1140 | 836 |  | 3420 | 100 | > 20000 | 2910 | 6580 | 193 | 544 | > 20000 | 5700 | > 20000
LNTVKIPNTVSVSTG [Peptide 89.0178] | 51 | 824 | 5480 | 65 | 3020 | 3690 | 1140 | 361 |  | 2580 |  | 12700 | 976
DNDIVDDSEIAYKYA [Peptide 90.0037] | > 20000 | 4620 | > 20000 | 28 | > 20000 | > 20000 | > 20000 | 5300 | > 20000 | > 20000 | > 20000 |  | > 20000
DNELTDDSDIAYYYA [Peptide 90.0085] | > 20000 | > 20000 | > 20000 | 98 | > 20000 | > 20000 | > 20000 | > 20000 | > 20000 | > 20000 | > 20000 |  | > 20000
DNDVMDDSEIAYKYA [Peptide 90.0069] | > 20000 | 3680 |  | 53 | 10100 | > 20000 | > 20000 | 12700 | > 20000 | > 20000 | > 20000 | 8220 | > 20000
AKALQAIELQMMLET [Peptide 89.0171] | 16 | 78 | 51 | 1460 | 798 | > 20000 | 84 | 243 |  | 2550 | 284 | 8480 | 2400
LKAICIEKQSRAAKR [Peptide 90.0032] | 259 | 307 |  | 21 | > 20000 | 273 | 13400 | 11800 |  | 29 |  | 2060 | 545
KNRLTVAKLMSNLLS [Peptide 89.0064] | 5.6 | 21 | 2.8 | 9720 | 12 | 580 | 2680 | 89 | 14 | 25 |  |  | 1580
